Reference: patent EP1275386A1, “SOLID […] IMPROVED ABSORBABILITY” (FUJISAWA PHARMACEUTICAL CO., LTD., priority 2000, dated 2001)

How the values were obtained:
[1] = Test on solubility of active component in water (Test Example 1); format: physicochemical; conditions: 15mg equivalent of Active Component 1 in 7.5 mL of water at 37 °C, agitated with a stirrer; dihydrate
Description: Compared was the solubility of the solid dispersions obtained in Examples 2, 3 and 5 (referred to as "Preparation 2," "Preparation 3" and "Preparation 5," respectively, hereinafter) containing as an active ingredient N-(3,4-dimethoxybenzyl)-2-[(trans-4-formamidocyclohexyl)amino]-5-nitrobenzamide dihydrate (referred to as "Active Component 1" hereinafter), the amorphous Active Component 1 obtained in Comparative Example 1 and the crystal Active Component 1 obtained in Production Example 1. The test was performed by adding Preparations 2, 3 and 5, the amorphous Active Component 1 and the crystal Active Component 1 each containing 15mg equivalent of Active Component 1 to 7.5 mL of water heated to 37 °C, agitating the resulting mixtures with a stirrer and measuring the concentration of Active Component 1 in the solutions. The results are shown in Fig. 1, which is a graphical representation showing the change with time of the solubility in water of Preparations 2, 3 and 5, the amorphous Active Component 1 and the crystal Active Component 1. […]

[2] = Test on crystal state of Active Component 1 by DSC, storage at 70 °C for 7 days (Test Example 2); format: physicochemical
Experimental: Preparations 2 and 3 containing Active Component 1 and the amorphous Active Component 1 after being stored at 70 °C for 7 days were tested on the crystal state of Active Component 1 by differential scanning calorimetry (DSC for short hereinafter). […]

COc1ccc(CNC(=O)c2cc([N+](=O)[O-])ccc2N[C@H]2CC[C@H](NC=O)CC2)cc1OC.O.O [Crystal Active Component 1, N-(3,4-dimethoxybenzyl)-2-[(trans-4-formamidocyclohexyl)amino]-5-nitrobenzamide dihydrate]
Maximum Concentration Achieved of Active Component 1 in water [1]: 0.38 µg/mL

COc1ccc(CNC(=O)c2cc([N+](=O)[O-])ccc2N[C@H]2CC[C@H](NC=O)CC2)cc1OC.O.O [Amorphous Active Component 1, N-(3,4-dimethoxybenzyl)-2-[(trans-4-formamidocyclohexyl)amino]-5-nitrobenzamide dihydrate]
Maximum Concentration Achieved of Active Component 1 in water [1]: 8.68 µg/mL | D S C analysis results ([2]; After storage at 70 °C for 7 days): Endothermic peak caused by melting indicative of existence of crystal was recognized. | D S C analysis results ([2]; Before storage): Endothermic peak caused by melting indicative of existence of crystal was not recognized. | change of crystal state of Active Component 1 ([2]; after being stored at 70 °C for 7 days, DSC): changed from the amorphous state to a crystal state
